# Patent US20030176431A1 (priority 1997, published 2003)
# Read-outs that look alike come from different tables or passages of the source.
# Assays:
# [1] = system: BVDV (strain NADL); assay: Cell culture assay for inhibition of BVDV replication (cytopathic effect, crystal violet); type: cell-based, bovine viral diarrhea virus
# From the text: The replication of many viruses may be quantitatively assessed in the laboratory in various cell or tissue culture systems. Such in vitro culture methodologies are available and useable by those trained in the art for the propagation and quantitative measurement of the replication of several pestiviruses and flaviviruses. The following procedure was used for the in vitro quantitative measure of BVDV replication.
# Using the procedure described in this example, compounds of the invention were evaluated for their ability to inhibit the replication of the virus in cell culture. By adding compounds at various concentrations to the culture medium, a dose response effect of the compound on virus replication can be determined. A useful quantitative measure of the inhibition of BVDV replication in this assay is the concentration of the compound at which virus replication in cell culture is inhibited by 50% in comparison to that observed in the absence of the compound (50% Inhibitory Concentration, IC50).
# Anti-pestivirus compounds of the invention were screened for antiviral activity against BVDV on Madin Darby bovine kidney (MDBK) cells in a cell culture assay. Standard 96-well culture plates were seeded with 1 to 2×10^4 MDBK cells in 200 uL of Dulbeccos-modified Eagle's medium (DMEM) supplemented with 5% horse serum so as to obtain a monolayer of cells at 60% confluence. Six hours later, the medium was removed and the cell monolayers in each well were infected with 150 uL solution of BVDV (strain NADL) (M. S. Collett et al., Virology 165:191-199 (1988)) in DMEM supplemented with 2% horse serum previously titrated to yield 85-100% destruction (cytopathic effect) of the cell monolayer 36-40 hours after infection.
# To determine the IC50 values of compounds tested in this experiment, ten serial 2-fold dilutions of test compounds were prepared in DMSO solvent at a compound concentration 200 times that desired for the highest final test concentration. The test compound-DMSO solutions were diluted 50-fold into DMEM containing 2% horse serum. Fifty uL of this dilution was added to the 150 uL volume present in the wells of the virus-infected plate, yielding a final DMSO concentration in each well of 0.5%. Virus control (VC; no test compound) and cell culture control (CC; no virus and no test compound) wells were included on each 96-well plate. Assay points were conducted in replicate, usually in quadruplicate. Plates were then incubated at 37° C. in a humidified atmosphere containing 2.5% carbon dioxide for 36-40 hours. At the end of the incubation period, 100 uL of a 5% solution of glutaraldehyde in water was added to each well and the wells were incubated at room temperature for 1 hour. The fixative was removed, and the cells were stained with a 0.1% solution of crystal violet in water for 15-30 minutes. After rinsing and drying the plates, the optical density of the wells was measured at 570 nm (OD570).
# To determine IC50 values for the test compounds, the mean value of the OD570 readings of the virus control wells (VC) on a plate was subtracted from the OD570 readings of all wells on that plate. The IC50 values were then calculated according to the following formula: [formula]
# where Y represents the mean OD570 reading of the cell control wells (CC) divided by 2; B represents the mean OD570 reading of wells of the compound dilution nearest to and below Y; A represents the mean OD570 reading of wells of the compound dilution nearest to and above Y; L represents the compound concentration at B; and H represents the compound concentration at A.
# [2] = system: Respiratory syncytial virus; assay: microbe, parasite or virus in culture; type: cell-based; conditions: read-out: IC50 Respiratory syncytial virus
# [3] = system: Influenza A virus; assay: microbe, parasite or virus in culture; type: cell-based; conditions: read-out: IC50 Influenza A virus
# [4] = system: Coxsackie B3 virus; assay: microbe, parasite or virus in culture; type: cell-based
# [5] = system: Herpes simplex virus type 2; assay: microbe, parasite or virus in culture; type: cell-based
# [6] = system: normal cells; conditions: highest concentration giving optical density ≧75% of control, MTT, 68 hours
# Method: This assay measures cell viability, and therefore cytotoxicity, by quantitatively detecting the in situ reduction of 3-(4,5-dimethylthiazol-2-yl)-2,5-diphenyltetrazolium bromide (MTT) by viable cells. Cells are seeded in 96-well plates in DMEM containing 2% horse serum at a density of 4×10^3 cells per well. After incubation for 4 hours at 37° C. and 5% CO2, 2-fold serial dilutions of compound in 1% DMSO (or solvent alone) are added to quadruplicate wells and the plates are incubated for an additional 68 hours at 37° C. and 5% CO2, which is equivalent to 3 to 4 cell doublings. The culture medium is removed, and the cells are treated with 1 mg/ml of MTT in phosphate-buffered saline, pH 7.2 for 4 hours at 37° C. and 5% CO2. After removal of the unreduced MTT, the reduced blue formazan crystals produced by the viable cells are solubilized by the addition of 0.04N HCl in isopropanol. The absorbance at 570 nm (A570) of each well is read using a suitable microplate reader. Cell viability is expressed as the percentage of optical density for compound-treated cells relative to the optical density of solvent alone-treated control wells. The highest compound concentration resulting in an optical density of ≧75% of the control is represented as the cellular cytotoxicity value (CC75).
# [7] = mouse, in vivo, po
# [8] = Animal safety study: maximum tolerated dose after single oral dose; conditions: female, Swiss Webster, mouse, in vivo, po
# Method: (§1) Doses above this level are overtly toxic or fatal to the animal.
# (§2) To assess the safety of compounds of the invention, the methyl cellulose formulations of compounds of the invention were administered to laboratory mice. A single dose of each compound in a 0.5 mL volume was administered by oral gavage to groups of test animals, each consisting of five female Swiss Webster mice 8 to 9 weeks of age and weighing 25 to 30 g. The MTD was determined by administering increasing doses of compound and assessing animal survival over a 7 day period.
# [9] = system: female Swiss Webster mice; assay: as above; conditions: mice; for MTD: single oral dose, survival over 7 days
# Method: as §1, §2
# [10] = system: BVDV-infected MDBK cells; type: cell-based, bovine viral diarrhea virus; conditions: read-out: IC50 evaluated with the spiked mouse reference serum
# [11] = system: female Swiss Webster mice; conditions: mouse, in vivo, po
# Method: as §1, §2
# [12] = Bovine viral diarrhea virus isolates and strains, BVDV strain NADL on MDBK cells, 36-40 hours, read-out: IC50
# [13] = Bovine viral diarrhea virus isolates and strains, BVDV, read-out: IC50 determined in cell culture
# [14] = Bovine viral diarrhea virus isolates and strains, Table 3 specificity panel, BVDV, read-out: IC50 BVDV
# [15] = Bovine viral diarrhea virus isolates and strains, antiviral IC50 against BVDV, Table 4, read-out: IC50
# [16] = human respiratory syncytial virus
# [17] = Enterovirus B, B3, read-out: IC50 Coxsackie B3 virus
# [18] = Human alphaherpesvirus 2, read-out: IC50 Herpes simplex virus type 2
# [19] = single oral gavage dose 21 mg/kg
# [20] = single oral gavage dose 71 mg/kg
# [21] = single oral gavage dose 214 mg/kg
# [22] = single oral gavage dose 710 mg/kg
smiles,measurement,setting,value
CC(CN(C)C)Sc1nnc2c(n1)[nH]c1ccccc12 (stereo not shown) [Example 4],IC50,[1]; [12],3700 nM
c1ccc2c(c1)[nH]c1nc(SCCN3CCCCC3)nnc12 [Example 7],IC50,[1]; [12],60 nM
same,IC50,[1]; [13],60 nM
same,IC50,[1]; [14],60 nM
same,IC50,[1]; [15],60 nM
same,IC50,[2]; [16],> 50000 nM
same,IC50,[3]; Influenza A virus,> 50000 nM
same,IC50,[4]; [17],> 50000 nM
same,IC50,[5]; [18],> 50000 nM
same,CC75,[6],12500 nM
same,Concentration Of Drug Measured In Serum Post Drug Administration 30 Min.,"[7]; Swiss Webster, 21 mg/kg",<1500 nM
same,Concentration Of Drug Measured In Serum Post Drug Administration 90 Min.,"[7]; Swiss Webster, 21 mg/kg",<1500 nM
same,Concentration Of Drug Measured In Serum Post Drug Administration 30 Min.,"[7]; Swiss Webster, 214 mg/kg",46000 nM
same,Concentration Of Drug Measured In Serum Post Drug Administration 90 Min.,"[7]; Swiss Webster, 214 mg/kg",36200 nM
same,MTD at 7 day,[8],≥ 710 mg/kg
same,MTD,[9],greater than or equal to the highest dose tested
same,#Survivors (alive at Day 7),[9]; [19],5/5
same,#Survivors (alive at Day 7),[9]; [20],5/5
same,#Survivors (alive at Day 7),[9]; [21],5/5
same,#Survivors (alive at Day 7),[9]; [22],5/5
CCCN(CCC)CCSc1nnc2c(n1)[nH]c1ccccc12 [Example 19],IC50,[1]; [12],2 nM
CCCN(CCC)CCSc1nnc2c(n1)[nH]c1ccc(N)cc12 [Example 26],IC50,[1]; [12],10 nM
Cc1ccc2[nH]c3nc(SCCN4CCCCC4)nnc3c2c1 [Example 24],IC50,[1]; [12],13 nM
Clc1cc(CSc2nnc3c(n2)[nH]c2ccccc23)cc(Cl)n1 [Example 17],IC50,[1]; [12],1400 nM
CCC1CCN(CCSc2nnc3c(n2)[nH]c2ccccc23)CC1 [Example 15],IC50,[1]; [12],> 3000 nM
Fc1ccc2[nH]c3nc(SCCN4CCCCC4)nnc3c2c1 [Example 27],IC50,[1]; [12],21 nM
CN(C)CCSc1nnc2c(n1)[nH]c1ccccc12 [Example 5],IC50,[1]; [12],5500 nM
Brc1ccc2[nH]c3nc(SCCN4CCCCC4)nnc3c2c1 [Example 21],IC50,[1]; [12],36 nM
COc1cc2oc(=O)cc(CSc3nnc4c(n3)[nH]c3ccccc34)c2cc1OC [Example 13],IC50,[1]; [12],1700 nM
c1ccc2c(c1)[nH]c1nc(SCc3ccncc3)nnc12 [Example 10],IC50,[1]; [12],4000 nM
c1ccc2c(c1)[nH]c1nc(SCCN3CCCCCC3)nnc12 [Example 9],IC50,[1]; [12],30 nM
same,IC50,[1]; [13],30 nM
same,IC50,[1]; [14],30 nM
same,IC50,[1]; [15],30 nM
same,IC50,[2]; [16],> 50000 nM
same,IC50,[3]; Influenza A virus,> 50000 nM
same,IC50,[4]; [17],> 50000 nM
same,IC50,[5]; [18],> 50000 nM
same,CC75,[6],25000 nM
same,Concentration Of Drug Measured In Serum Post Drug Administration 30 Min.,"[7]; Swiss Webster, 21 mg/kg",700 nM
same,Concentration Of Drug Measured In Serum Post Drug Administration 90 Min.,"[7]; Swiss Webster, 21 mg/kg",<200 nM
same,Concentration Of Drug Measured In Serum Post Drug Administration 30 Min.,"[7]; Swiss Webster, 214 mg/kg",19600 nM
same,Concentration Of Drug Measured In Serum Post Drug Administration 90 Min.,"[7]; Swiss Webster, 214 mg/kg",8500 nM
same,MTD at 7 day,[8],214 mg/kg
same,#Survivors (alive at Day 7),[9]; [19],5/5
same,#Survivors (alive at Day 7),[9]; [20],5/5
same,#Survivors (alive at Day 7),[9]; [22],0/5
COc1ccc2[nH]c3nc(SCCN4CCOCC4)nnc3c2c1 [Example 25],IC50,[1]; [12],2000 nM
CC(C)N(CCSc1nnc2c(n1)[nH]c1ccccc12)C(C)C [Example 3],IC50,[1]; [12],3100 nM
c1ccc2c(c1)[nH]c1nc(SCCCCOC3CCCCO3)nnc12 (stereo not shown) [Example 18],IC50,[1]; [12],> 3000 nM
Brc1ccc2[nH]c3nc(SCCN4CCCCCC4)nnc3c2c1 [Example 22],IC50,[1]; [12],42 nM
Cc1ccc2[nH]c3nc(SCCN4CCCCCC4)nnc3c2c1 [Example 20],IC50,[1]; [12],7 nM
CCCCN(CCCC)CCSc1nnc2c(n1)[nH]c1ccccc12 [Example 12],IC50,[1]; [12],10 nM
"CCCN(CCC)CCSc1nnc2c(n1)[nH]c1ccccc12 [Example 1, 3-[((2-dipropylamino)ethyl)thio]-5H-1,2,4-triazino[5,6-b]indole]",IC50,[1]; read-out: IC50,6 nM
same,IC50,[1]; read-out: IC50 BVDV,6 nM
same,IC50,[1]; read-out: IC50 determined in cell culture,6 nM
same,IC50,[2],> 50000 nM
same,IC50,[3],> 50000 nM
same,IC50,[4]; read-out: IC50 Coxsackie B3 virus,> 50000 nM
same,IC50,[5]; read-out: IC50 Herpes simplex virus type 2,> 50000 nM
same,IC50,[10],3.5 nM
same,CC75,[6],2000 nM
same,MTD,[11],greater than or equal to the highest dose tested
same,Concentration Of Drug Measured In Serum Post Drug Administration 30 Min.,[7]; 21 mg/kg,100 nM
same,Concentration Of Drug Measured In Serum Post Drug Administration 90 Min.,[7]; 21 mg/kg,70 nM
same,Concentration Of Drug Measured In Serum Post Drug Administration 30 Min.,[7]; 214 mg/kg,1100 nM
same,Concentration Of Drug Measured In Serum Post Drug Administration 90 Min.,[7]; 214 mg/kg,600 nM
same,MTD,[9],≧710 mg/kg
same,#Survivors (alive at Day 7),[9]; [19],5/5
same,#Survivors (alive at Day 7),[9]; [20],5/5
same,#Survivors (alive at Day 7),[9]; [21],5/5
same,#Survivors (alive at Day 7),[9]; [22],5/5
N#CC1CCN(CCSc2nnc3c(n2)[nH]c2ccccc23)CC1 [Example 14],IC50,[1]; [12],1800 nM
c1ccc2c(c1)OCC(CSc1nnc3c(n1)[nH]c1ccccc13)O2 (stereo not shown) [Example 16],IC50,[1]; [12],2500 nM
CCN(CC)CC(C)Sc1nnc2c(n1)[nH]c1ccccc12 (stereo not shown) [Example 2],IC50,[1]; [12],300 nM
c1ccc2c(c1)[nH]c1nc(SCCN3CCOCC3)nnc12 [Example 11],IC50,[1]; [12],1200 nM
Fc1ccc2[nH]c3nc(SCCN4CCCCCC4)nnc3c2c1 [Example 23],IC50,[1]; [12],14 nM
c1ccc2c(c1)[nH]c1nc(SCCCN3CCCCC3)nnc12 [Example 8],IC50,[1]; [12],4400 nM
c1ccc2c(c1)[nH]c1nc(SCCN3CCCC3)nnc12 [Example 6],IC50,[1]; [12],500 nM
